± gives the expanded uncertainty stated by the source.
How the values were obtained:
[1] = refractive index (Na D-line) (dimensionless); settings: 101.33 kPa, Liquid, Standard Abbe refractometry
[2] = for speed of sound / mass density / viscosity: 101.33 kPa, Liquid; for speed of sound: Sing-around technique in a fixed-path interferometer; for mass density: Vibrating tube method; for surface tension liquid-gas: Drop weight; for viscosity: Capillary tube (Ostwald / Ubbelohde) method

CCCCn1cc[n+](C)c1.COS(=O)(=O)[O-] [1-butyl-3-methylimidazolium methyl sulfate]
refractive index ([1]; 283.15 K): 1.48351 ± 0.0011
refractive index ([1]; 288.15 K): 1.48213 ± 0.0011
refractive index ([1]; 293.15 K): 1.48076 ± 0.0011
refractive index ([1]; 298.15 K): 1.47942 ± 0.0011
refractive index ([1]; 303.15 K): 1.47805 ± 0.0011
refractive index ([1]; 308.15 K): 1.47671 ± 0.0011
refractive index ([1]; 313.15 K): 1.47536 ± 0.0011
refractive index ([1]; 318.15 K): 1.474 ± 0.0011
refractive index ([1]; 323.15 K): 1.47266 ± 0.0011
refractive index ([1]; 328.15 K): 1.47132 ± 0.0011
refractive index ([1]; 333.15 K): 1.47 ± 0.0011
refractive index ([1]; 338.15 K): 1.46864 ± 0.0011
refractive index ([1]; 343.15 K): 1.46725 ± 0.0011
speed of sound ([2]; 278.15 K): 1708.3 ± 5.2 m/s
mass density ([2]; 278.15 K): 1225.84 ± 8.2 kg/m3
surface tension liquid-gas ([2]; 283.15 K): 45.9 ± 1.2 mN/m
speed of sound ([2]; 283.15 K): 1695.8 ± 5.2 m/s
mass density ([2]; 283.15 K): 1222.44 ± 8.1 kg/m3
surface tension liquid-gas ([2]; 288.15 K): 45 ± 1.1 mN/m
speed of sound ([2]; 288.15 K): 1683.4 ± 5.2 m/s
mass density ([2]; 288.15 K): 1219.03 ± 8.1 kg/m3
surface tension liquid-gas ([2]; 293.15 K): 44.1 ± 1.1 mN/m
viscosity ([2]; 293.15 K): 288.99 ± 14 mPa·s
speed of sound ([2]; 293.15 K): 1670.9 ± 5.2 m/s
mass density ([2]; 293.15 K): 1215.62 ± 8 kg/m3
surface tension liquid-gas ([2]; 298.15 K): 43.3 ± 1.1 mN/m
viscosity ([2]; 298.15 K): 213.19 ± 9 mPa·s
speed of sound ([2]; 298.15 K): 1658.4 ± 5.2 m/s
mass density ([2]; 298.15 K): 1212.22 ± 8 kg/m3
surface tension liquid-gas ([2]; 303.15 K): 42.8 ± 1.1 mN/m
viscosity ([2]; 303.15 K): 160.93 ± 6 mPa·s
speed of sound ([2]; 303.15 K): 1646 ± 5.2 m/s
mass density ([2]; 303.15 K): 1208.81 ± 8 kg/m3
surface tension liquid-gas ([2]; 308.15 K): 42.3 ± 1.1 mN/m
viscosity ([2]; 308.15 K): 123.73 ± 4.2 mPa·s
speed of sound ([2]; 308.15 K): 1633.5 ± 5.2 m/s
mass density ([2]; 308.15 K): 1205.41 ± 7.9 kg/m3
surface tension liquid-gas ([2]; 313.15 K): 41.8 ± 1.1 mN/m
viscosity ([2]; 313.15 K): 96.83 ± 3 mPa·s
speed of sound ([2]; 313.15 K): 1621.1 ± 5.2 m/s
mass density ([2]; 313.15 K): 1202.04 ± 7.9 kg/m3
viscosity ([2]; 318.15 K): 77.08 ± 2.2 mPa·s
speed of sound ([2]; 318.15 K): 1608.6 ± 5.2 m/s
mass density ([2]; 318.15 K): 1198.66 ± 7.8 kg/m3
viscosity ([2]; 323.15 K): 62.22 ± 1.6 mPa·s
speed of sound ([2]; 323.15 K): 1596.1 ± 5.2 m/s
mass density ([2]; 323.15 K): 1195.34 ± 7.8 kg/m3
speed of sound ([2]; 328.15 K): 1583.7 ± 5.2 m/s
mass density ([2]; 328.15 K): 1192.02 ± 7.7 kg/m3
viscosity ([2]; 333.15 K): 42.24 ± 1.1 mPa·s
speed of sound ([2]; 333.15 K): 1571.2 ± 5.2 m/s
mass density ([2]; 333.15 K): 1188.73 ± 7.7 kg/m3
speed of sound ([2]; 338.15 K): 1558.8 ± 5.2 m/s
mass density ([2]; 338.15 K): 1185.45 ± 7.6 kg/m3
viscosity ([2]; 343.15 K): 29.99 ± 0.8 mPa·s
speed of sound ([2]; 343.15 K): 1546.3 ± 5.2 m/s
mass density ([2]; 343.15 K): 1182.19 ± 7.6 kg/m3
